# Experiments:
# [1] = Determination of the solubility of felodipine at pH 1.2 (orbital shaker, 24 hours, SGFsp, HPLC); assay type: physicochemical; settings: SGFsp medium buffered to pH 1.2, simulated gastric fluid, thermodynamic from solid, SGFsp pH 1.2, 37° C., 10 mg in 20 ml, read-out: solubility of felodipine alone at pH 1.2
# Description: Felodipine has a solubility in water of <1 mg/l […]. The solubility for felodipine was determined for comparison in a medium buffered to pH 1.2 (SGFsp pH 1.2). For this purpose, 10 mg were kept in motion at 37° C. on an orbital shaker in 20 ml of medium for 24 hours. The concentration was determined by means of HPLC. For felodipine alone, without inventive formulation, a solubility of 0.5 mg/l was determined.
# [2] = cited from earlier work
smiles,measurement,setting,value
"CCOC(=O)C1=C(C)NC(C)=C(C(=O)OC)C1c1cccc(Cl)c1Cl (centres unmarked) [felodipine alone, felodipine]",solubility at 24 h,[1],0.5 µg/mL
same,solubility in water,[2],< 1 µg/mL

# — patent publication US20090011007A1, “Pharmaceutical Compositions Containing Mixtures of Polymers and Active Agents Poorly Soluble in Water” (Evonik Roehm GmbH, priority 2006, published 2009)
